# Publication PMC5077133, “Towards Development of Small Molecule Lipid II Inhibitors as Novel Antibiotics” (PLoS ONE, 2016)
# Key:
# [1] = tested on: E. faecalis (n=5) clinical isolates; test: Activity against Enterococcus spp. (MIC); format: cell-based; conditions: clinical isolates sensitive to linezolid and daptomycin
# Procedure: Determination of the Minimal Inhibitory Concentrations (MIC) by dilution was carried out by broth dilution according to CLSI standards.
# [2] = tested on: Enterococcus faecalis EF1509; test: Murine peritoneal sepsis model; format: in vivo, C57BL/6J mice; conditions: 6jc48-1 100 mg/kg, ampicillin 300 mg/kg
# Text: Care of the mice met or exceeded the standards set forth by the National Institute of Health Guide for the care and use of laboratory animals and the AVMA panel on Euthanasia. All procedures in this study have been approved by the Institutional Animal Care and Use Committee (IACUC) at the University of Maryland Baltimore School of Medicine (Protocol number 02122005). Adult C57BL/6J mice (~18 grams, 8–10 weeks old) were used for all experiments. Mice were obtained from the Jackson Laboratory (Bar Harbor, Maine, USA) and housed in the IHV SPC animal core facility. Mice were fed standard chow (Harlan Laboratories) and water ad libitum. […] Infected animals (n = 5) were subsequently treated by intraperitoneal injection 30 min post-infection with 100 mg/kg of compound in 300 μL sterile saline solution, 5% Tween 80, 10% DMSO (V/V), ampicillin (300mg/kg), or vehicle (sterile saline solution, 5% Tween 80, 10% DMSO (V/V)) as positive and negative controls, respectively. Animals were closely observed during a period of 24 h and mice that show signs of severe sepsis were humanely euthanized. Mice were anesthetized by intraperitoneal injection of ketamine (80-100mg/kg) and xylazine (10–15 mg/kg). Once sedated, blood was collected by cardiac puncture. Immediately after blood collection the mice were euthanized by cervical dislocation. Spleens were harvested aseptically, weighed and homogenized in 500 μl of sterile saline solution using an IKA T10 basic disperser (IKA, Wilmington NC). Spleen homogenates were serially diluted and plated onto BHI agar plates. Bacterial counts were determined following 24 h incubation at 37°C and expressed as CFU per gram for spleen.
# We established a murine model for sepsis to evaluate the efficacy of 6jc48-1 as an antibiotic agent in vivo. […] Based on the data obtained in the pharmacokinetic analysis, mice (n = 5) were inoculated intraperitoneally with E. faecalis EF1509 (~5 x 10^8 CFU/ animal) and treated after 30 min with compound 6jc48-1 (100 mg/kg IP), ampicillin (300 mg/kg IP) or vehicle. Animals were monitored for survival and after 24 h spleen samples were collected and analyzed for the presence of bacteria. Bacterial counts were determined by plating serial dilutions on BHI agar plates and compared to control treatment with ampicillin as measures of efficacy (Fig 5).
Compound,Activity (MIC) E. faecalis (n=5) clinical isolates [1],"Bacterial counts in spleen ([2]; IP treatment 30 min post-infection, spleen collected after 24 h)","Survival of infected animals ([2]; n = 5, IP treatment 30 min post-infection, length of the experiment (24 h))"
CN[C@H](CC(C)C)C(=O)N[C@H]1C(=O)N[C@@H](CC(N)=O)C(=O)N[C@H]2C(=O)N[C@H]3C(=O)N[C@H](C(=O)N[C@H](C(=O)O)c4cc(O)cc(O)c4-c4cc3ccc4O)[C@H](O)c3ccc(c(Cl)c3)Oc3cc2cc(c3O[C@@H]2O[C@H](CO)[C@@H](O)[C@H](O)[C@H]2O[C@H]2C[C@](C)(N)[C@H](O)[C@H](C)O2)Oc2ccc(cc2Cl)[C@H]1O [Vancomycin],>32,,
"CC1(C)S[C@@H]2[C@H](NC(=O)[C@H](N)c3ccccc3)C(=O)N2[C@H]1C(=O)O [ampicillin, reference compound]",,significant bacterial clearance,all animals
